Measurements published in DBAASP.
Values after ≈ are worked out from the molar mass of the structure shown. Each block holds one molecule with its values, some of them ahead of it.

Columns and labels:
Experiment in all cases: ≥ marks a high value that may be exact or a test limit, other limits are often not marked, values filed in µg/mL are converted to µM
Acinetobacter baumannii = system: Acinetobacter baumannii
[1] = system: Bacillus subtilis ATCC 6633
[2] = system: Pseudomonas aeruginosa ATCC 10662
[3] = system: Klebsiella pneumoniae ATCC 27736
[4] = system: Pseudomonas aeruginosa ATCC BAA-427
[5] = system: Staphylococcus epidermidis ATCC 1435
Staphylococcus aureus = system: Staphylococcus aureus
[6] = system: Escherichia coli ATCC 25922
[7] = system: Staphylococcus aureus FDA 209P
Escherichia coli O111 = system: Escherichia coli O111
[8] = system: Pseudomonas aeruginosa ATCC 27853
[9] = system: Staphylococcus aureus ATCC 43300
[10] = system: Staphylococcus epidermidis
[11] = system: Candida albicans F7-39/IDE99
[12] = system: Micrococcus luteus CCM 144
Pseudomonas aeruginosa = system: Pseudomonas aeruginosa
Bacillus subtilis 168 = system: Bacillus subtilis 168
Escherichia coli B = system: Escherichia coli B
Staphylococcus aureus 1 = system: Staphylococcus aureus 1
Candida albicans = system: Candida albicans
[13] = system: Staphylococcus aureus ATCC 25923
Candida tropicalis = system: Candida tropicalis
Candida glabrata = system: Candida glabrata
[14] = system: Enterococcus faecium CGMCC 1.2334
[15] = system: Pseudomonas aeruginosa CGMCC 1.860
[16] = system: Staphylococcus aureus AS1.72
[17] = system: Lactococcus lactis AS1.1690
Escherichia coli AS1.349 = system: Escherichia coli AS1.349
Bacillus cereus AS1.126 = system: Bacillus cereus AS1.126
[18] = system: Enterococcus faecalis CGMCC 1.595
[19] = system: Streptococcus mutans UA159
[20] = system: Streptococcus sobrinus ATCC 6715
[21] = system: Streptococcus sanguinis ATCC 10556
[22] = system: Listeria monocytogenes LO28
[23] = system: Cronobacter sakazakii DPC 6440

MIC (Acinetobacter baumannii): 1.23 µM (≈ 3.1 µg/mL)
MIC [1]: 8 µM (≈ 20.2 µg/mL)
MIC [2]: 9.88 µM (≈ 25 µg/mL)
MIC [3]: 6 µM (≈ 15.2 µg/mL)
MIC [4]: 10 µM (≈ 25.3 µg/mL)
MIC [5]: 0.593 µM (≈ 1.5 µg/mL)
MIC (Staphylococcus aureus): 1.23 µM (≈ 3.1 µg/mL)
Structure (SMILES): CC[C@H](C)[C@H](NC(=O)[C@H](Cc1cnc[nH]1)NC(=O)[C@H](Cc1cnc[nH]1)NC(=O)[C@H](Cc1ccccc1)NC(=O)[C@@H](N)Cc1ccccc1)C(=O)N[C@@H](Cc1ccccc1)C(=O)N[C@@H](CCCN=C(N)N)C(=O)NCC(=O)N[C@@H](C)C(=O)N[C@H](C(=O)N[C@@H](Cc1cnc[nH]1)C(=O)N[C@H](C(=O)NCC(=O)N[C@@H](CCCCN)C(=O)N[C@H](C(=O)N[C@H](C(=O)N[C@@H](Cc1cnc[nH]1)C(=O)N[C@@H](CCCN=C(N)N)C(=O)N[C@@H](CC(C)C)C(=O)N[C@H](C(=O)N[C@H](C(=O)NCC(N)=O)[C@@H](C)O)C(C)C)[C@@H](C)CC)[C@@H](C)O)C(C)C)C(C)C [FFHHIFRGAVHVGKTIHRLVTG]

MIC [6]: 2.66 µM (≈ 8.19 µg/mL)
MIC [1]: 20.8 µM (≈ 64 µg/mL)
MIC [7]: 5.35 µM (≈ 16.5 µg/mL)
MIC (Escherichia coli O111): 2.66 µM (≈ 8.19 µg/mL)
Structure (SMILES): CC[C@H](C)[C@H](NC(=O)[C@@H](NC(=O)CN)C(C)C)C(=O)N[C@H](C(=O)N[C@@H](CC(=O)O)C(=O)N[C@@H](C)C(=O)N[C@@H](CC(C)C)C(=O)N[C@@H](CCCCN)C(=O)NCC(=O)N[C@@H](C)C(=O)N[C@@H](C)C(=O)N[C@@H](CCCCN)C(=O)N[C@H](C(=O)N[C@H](C(=O)N[C@@H](C)C(=O)N[C@@H](C)C(=O)N[C@@H](CCC(=O)O)C(=O)N[C@@H](CC(C)C)C(=O)N[C@@H](CC(C)C)C(=O)N[C@@H](CCCN=C(N)N)C(=O)N[C@@H](CCCCN)C(=O)N[C@@H](C)C(=O)N[C@@H](Cc1cnc[nH]1)C(=O)N[C@H]1CSSC[C@@H](C(=O)O)NC(=O)[C@H](CO)NC(=O)[C@H](CC(N)=O)NC(=O)[C@H]([C@@H](C)O)NC(=O)[C@H](CC(C)C)NC(=O)[C@H](CCCCN)NC1=O)C(C)C)[C@@H](C)O)[C@@H](C)O [GVITDALKGAAKTVAAELLRKAHCKLTNSC]

MIC [8]: 4.5 µM (≈ 7.79 µg/mL)
MIC [9]: 9 µM (≈ 15.6 µg/mL)
MIC [10]: 5 µM (≈ 8.66 µg/mL)
MIC [11]: 11 µM (≈ 19 µg/mL)
MIC [12]: 3 µM (≈ 5.19 µg/mL)
MIC (Pseudomonas aeruginosa): 9.3 µM (≈ 16.1 µg/mL)
MIC (Staphylococcus aureus): 10 µM (≈ 17.3 µg/mL)
MIC (Bacillus subtilis 168): 7 µM (≈ 12.1 µg/mL)
MIC (Escherichia coli B): 3.7 µM (≈ 6.41 µg/mL)
MIC (Staphylococcus aureus 1): 5.2 µM (≈ 9 µg/mL)
Structure (SMILES): CC[C@H](C)[C@H](NC(=O)CN)C(=O)N[C@@H](CCSC)C(=O)N[C@@H](CO)C(=O)N[C@@H](CO)C(=O)N[C@@H](CC(C)C)C(=O)N[C@@H](CCSC)C(=O)N[C@@H](CCCCN)C(=O)N[C@@H](CCCCN)C(=O)N[C@@H](CC(C)C)C(=O)N[C@@H](C)C(=O)N[C@@H](CCCCN)C(=O)N[C@H](C(=O)N[C@H](C(=O)N[C@@H](C)C(=O)N[C@@H](CCCCN)C(N)=O)[C@@H](C)CC)[C@@H](C)CC [GIMSSLMKKLAKIIAK]

MIC (Candida albicans): 2.47 µM (≈ 6.25 µg/mL)
MIC (Acinetobacter baumannii): 2.47 µM (≈ 6.25 µg/mL)
MIC [2]: 19.7 µM (≈ 50 µg/mL)
MIC [13]: 1.23 µM (≈ 3.12 µg/mL)
MIC (Candida tropicalis): 2.47 µM (≈ 6.25 µg/mL)
MIC (Candida glabrata): ≥ 39.5 µM
MIC [5]: 0.616 µM (≈ 1.56 µg/mL)
MIC (Staphylococcus aureus): 1.23 µM (≈ 3.12 µg/mL)
Structure (SMILES): CC(C)C[C@H](NC(=O)[C@H](CC(N)=O)NC(=O)[C@H](CCCN=C(N)N)NC(=O)[C@H](Cc1ccccc1)NC(=O)[C@@H](N)Cc1ccccc1)C(=O)N[C@@H](Cc1c[nH]c2ccccc12)C(=O)N[C@@H](CCCCN)C(=O)NCC(=O)N[C@@H](C)C(=O)N[C@@H](CCCCN)C(=O)N[C@@H](C)C(=O)N[C@@H](C)C(=O)N[C@@H](Cc1ccccc1)C(=O)N[C@@H](CCCN=C(N)N)C(=O)N[C@@H](C)C(=O)NCC(=O)N[C@@H](Cc1cnc[nH]1)C(=O)N[C@@H](C)C(=O)N[C@@H](C)C(=O)N[C@@H](Cc1c[nH]c2ccccc12)C(=O)N[C@@H](CCCN=C(N)N)C(=O)N[C@@H](C)C(=O)O [FFRNLWKGAKAAFRAGHAAWRA]

MIC [14]: ≥ 100 µM
MIC [15]: ≥ 100 µM
MIC [16]: ≥ 100 µM
MIC [17]: ≥ 100 µM
MIC (Escherichia coli AS1.349): ≥ 100 µM
MIC (Bacillus cereus AS1.126): ≥ 100 µM
MIC [18]: ≥ 100 µM
Structure (SMILES): NC(N)=NCCC[C@H](NC(=O)[C@H](Cc1cnc[nH]1)NC(=O)[C@H](Cc1c[nH]c2ccccc12)NC(=O)[C@H](Cc1ccccc1)NC(=O)[C@H](CCCN=C(N)N)NC(=O)[C@@H](N)CCCN=C(N)N)C(=O)O [RRFWHR]

MIC [19]: ≥ 315 µM
MIC [20]: ≥ 315 µM
MIC [21]: ≥ 315 µM
Structure (SMILES): CC(C)[C@H](NC(=O)[C@H](CCCCN)NC(=O)[C@H](C)NC(=O)[C@H](C)NC(=O)[C@H](CCCCN)NC(=O)[C@H](CCCCN)NC(=O)[C@H](Cc1ccccc1)NC(=O)[C@H](Cc1ccccc1)NC(=O)[C@H](CCCCN)NC(=O)[C@H](CCCCN)NC(=O)[C@H](Cc1c[nH]c2ccccc12)NC(=O)CN)C(=O)NCC(=O)N[C@@H](CCCCN)C(=O)O [GWKKFFKKAAKVGK]

MIC [22]: ≥ 39.1 µM
MIC [23]: ≥ 78.1 µM
Structure (SMILES): CC[C@H](C)[C@H](NC(=O)[C@@H](N)Cc1c[nH]c2ccccc12)C(=O)N[C@@H](CCC(N)=O)C(=O)N1CCC[C@H]1C(=O)N[C@@H](CCCCN)C(=O)N[C@H](C(=O)N[C@@H](CCCCN)C(=O)N[C@H](C(=O)N[C@H](C(=O)N1CCC[C@H]1C(=O)N[C@@H](C)C(=O)N[C@H](C(=O)N[C@@H](CCCN=C(N)N)C(=O)N[C@@H](Cc1ccc(O)cc1)C(=O)N[C@@H](CC(C)C)C(=O)O)C(C)C)[C@@H](C)CC)C(C)C)[C@@H](C)O [WIQPKTKVIPAVRYL]

MIC [22]: 19.5 µM (≈ 36.4 µg/mL)
MIC [23]: ≥ 78.1 µM
Structure (SMILES): CC[C@H](C)[C@H](NC(=O)[C@@H](N)Cc1c[nH]c2ccccc12)C(=O)N[C@@H](CCC(N)=O)C(=O)N1CCC[C@H]1C(=O)N[C@@H](CCCCN)C(=O)N[C@H](C(=O)N[C@@H](CCCCN)C(=O)N[C@H](C(=O)N[C@@H](C)C(=O)N1CCC[C@H]1C(=O)N[C@@H](Cc1ccc(O)cc1)C(=O)N[C@H](C(=O)N[C@@H](CCCN=C(N)N)C(=O)N[C@@H](Cc1ccc(O)cc1)C(=O)N[C@@H](CC(C)C)C(=O)O)C(C)C)C(C)C)[C@@H](C)O [WIQPKTKVAPYVRYL]

MIC [19]: 18.9 µM (≈ 32 µg/mL)
MIC [20]: 18.9 µM (≈ 32 µg/mL)
MIC [21]: 18.9 µM (≈ 32 µg/mL)
Structure (SMILES): NCCCC[C@H](NC(=O)CNC(=O)[C@H](Cc1ccccc1)NC(=O)[C@H](CCCCN)NC(=O)[C@H](Cc1ccccc1)NC(=O)[C@H](Cc1ccccc1)NC(=O)[C@H](CCCCN)NC(=O)[C@H](CCCCN)NC(=O)[C@H](Cc1ccccc1)NC(=O)[C@H](Cc1ccccc1)NC(=O)[C@H](CCCCN)NC(=O)CNC(=O)[C@@H](N)Cc1c[nH]c2ccccc12)C(=O)O [WGKFFKKFFKFGK]
